The values that follow come from patent publication US20130296266A1, “Pharmaceutical Composition of Complex Carbohydrates and Essential Oils and Methods of Using the Same” (Dermal Research Laboratories, Inc., priority 1999, published 2013).

Assay [1] has as its system polymyositis. Nature of the assay: Mucosal treatment of polymyositis (Example 26). It is filed as in vivo, human. Conditions: 50 mg daily. The method, then: A person suffering from colon cancer had been unable to tolerate their colostomy and demanded that their surgeon reconnect their intestines. They refused chemotherapy but requested a preparation prepared according to this invention. They were given a formulation of sodium hyaluronate (Collaborative Laboratories, Inc) which was prepared with a mixture of molecular weights of hyaluronate (as in EXAMPLE 4). When they began taking the hyaluronate preparation, their CEA was 70.1. They have taken the hyaluronate at a dose of 10 mg three times per day mucosally and after 6 months of treatment their CEA has dropped to 4.1. They have taken no other treatments. This patient had also suffered from polymyositis for 15 years. […] After 6 months they have been able to reduce their Prednisone to 5 mg per day.

Assay [2] relates to chronic eczema. Nature of the assay: Topical treatment of chronic eczema (Example 16). It is filed as in vivo, human. The note with it: person. The text has this: A person suffered from chronic eczema—scaly and red areas on their neck and arms. They had tried all types of treatments, including cortisone with no effect. They were given a preparation containing a mixture of low and high molecular weight sodium hyaluronate (prepared as in EXAMPLE 4) mixed with 1% Wintergreen Oil, 1% Spearmint Oil, and 0.5% Peppermint Oil. They applied it for one week. […] They have not treated the area for 2 months and has noted no return of signs of eczema.

Molecules are shown by their SMILES.

On to `C[C@]12C=CC(=O)C=C1CC[C@@H]1[C@@H]2C(=O)C[C@@]2(C)[C@H]1CC[C@]2(O)C(=O)CO` [Prednisone], for which the relief of polymyositis entry in assay [1] is “without much relief”.

`C[C@]12CCC(=O)C=C1CC[C@@H]1[C@@H]2C(=O)C[C@@]2(C)[C@H]1CC[C@]2(O)C(=O)CO` [cortisone]: the effect on eczema result in assay [2] is recorded as “no effect”.
